Source: patent US7132437B2, “Renal-selective biphenylalkyl 1H-substituted-1,2,4-triazole angiotensin II antagonists for treatment of hypertension” (G.D. Searle, priority 1990, dated 2006)

What was measured:
[1] = biological target: T1, smooth muscle angiotensin II receptor; test: Assay A: Angiotensin II Binding Activity; conditions: rat uterine membrane preparation, displacement of 125I-AII
T1 construct: Rat uterine membranes were prepared from fresh tissue
Method: Assay A: Angiotensin II Binding Activity
Compounds of Formula I were tested for ability to bind to the smooth muscle angiotensin II receptor using a rat uterine membrane preparation. […] Other chemicals were obtained from Sigma Chemical Co. This assay was carried out according to the method of Douglas et al [Endocrinology, 106, 120–124 (1980)]. Rat uterine membranes were prepared from fresh tissue. All procedures were carried out at 4° C. Uteri were stripped of fat and homogenized in phosphate-buffered saline at pH 7.4 containing 5 mM EDTA. The homogenate was centrifuged at 1500×g for 20 min., and the supernatant was recentrifuged at 100,000×g for 60 min. The pellet was resuspended in buffer consisting of 2 mM EDTA and 50 mM Tris-HCl (pH 7.5) to a final protein concentration of 4 mg/ml. […] The reaction was initiated by the addition of membrane protein and the mixture was incubated at 25° C. for 60 min. The incubation was terminated with ice-cold 50 mM Tris-HCl (pH 7.5) and the mixture was filtered to separate membrane-bound labelled peptide from the free ligand. The incubation tube and filter were washed with ice-cold buffer. Filters were assayed for radioactivity in a Micromedic gamma counter. Nonspecific binding was defined as binding in the presence of 10 μM of unlabelled AII. Specific binding was calculated as total binding minus nonspecific binding. […] Binding data were analyzed by a nonlinear least-squares curve fitting program.

rabbit aortic rings = test: Assay B: In Vitro Vascular Smooth Muscle Response for AII; assay type: cell-based; conditions: antagonist at 10^-5 M, two values per cell = aorta rings from two rabbits; for Kb: Oryctolagus cuniculus, read-out: Assay B pA2 (converted)
Method: Assay B: In Vitro Vascular Smooth Muscle-Response for ATT
Compounds of Formula I were tested for antagonist activity in rabbit aortic rings. Male New Zealand white rabbits (2–2.5 kg) were sacrificed using an overdose of pentobarbital and exsanguinated via the carotid arteries. The thoracic aorta was removed, cleaned of adherent fat and connective tissue and then cut into 3-mm ring segments. The endothelium was removed from the rings by gently sliding a rolled-up piece of filter paper into the vessel lumen. The rings were then mounted in a water-jacketed tissue bath, maintained at 37° C., between moveable and fixed ends of a stainless steel wire with the moveable end attached to an FT03 Grass transducer coupled to a Model 7D Grass Polygraph for recording isometric force responses. The bath was filled with 20 ml of oxygenated (95% oxygen/5% carbon dioxide) Krebs solution of the following composition […]: 130 NaCl, 15 NaHCO3, 15 KCl, 1.2 NaH2PO4, 1.2 MgSO4, 2.5 CaCl2, and 11.4 glucose. The preparations were equilibrated for one hour before approximately one gram of passive tension was placed on the rings. Angiotensin II concentration-response curves were then recorded (3×10^−10 to 1×10–5 M). Each concentration of AII was allowed to elicit its maximal contraction, and then AII was washed out repeatedly for 30 minutes before rechallenging with a higher concentration of AII. Aorta rings were exposed to the test antagonist at 10^−5 M for 5 minutes before challenging with AII. Adjacent segments of the same aorta ring were used for all concentration-response curves in the presence or absence of the test antagonist. The effectiveness of the test compound was expressed in terms of pA2 values and were calculated according to H. O. Schild [Br. J. Pharmacol. Chemother., 2, 189–206 (1947)]. […] Each test antagonist was evaluated in aorta rings from two rabbits.

AII pressor response = test: Assay C: In Vivo Intraduodenal Pressor Assay Response for AII Antagonists; parameters: species or system Sprague-Dawley rats
Method: Assay C: In Vivo Intraduodenal Pressor Assay Response for AII Antagonists
Male Sprague-Dawley rats weighing 225–300-grams were anesthetized with Inactin (100 mg/kg, i.p.) and catheters were implanted into the trachea, femoral artery, femoral vein and duodenum. Arterial pressure was recorded from the femoral artery catheter on a Gould chart recorder (Gould, Cleveland, Ohio). The femoral vein catheter was used for injections of angiotensin II, mecamylamine and atropine. The tracheal catheter allow for airway patency, and the duodenal catheter was used for intraduodenal (i.d.) administration of test compounds. After surgery, the rats were allowed to equilibrate for 30 minutes. Mecamylamine (3 mg/kg, 0.3 ml/kg) and atropine (400 ug/kg, 0.3 ml/kg) were then given i.v. to produce ganglion blockade. These compounds were administered every 90 minutes throughout the test procedure. Angiotensin II was given in bolus does i.v. (30 ng/kg in saline with 0.5% bovine serum albumin, 0.1 ml/kg) every 10 minutes three times or until the increase in arterial pressure produced was within 3 mmHg for two consecutive AII injections. The last two AII injections were averaged and were taken as the control AII pressor response. […] Angiotensin II injections were then given 5, 10, 20, 30, 45, 60, 75, 90, and 120 minutes after administration of the test compound and response of arterial pressure was monitored. The response to AII was calculated as percent of the control response and then the percent inhibition is calculated as 100 minus the percent control response. Duration of action of a test compound was defined as the time from peak percent inhibition to 50% of peak. One compound at one dose was tested in each rat. Each test compound was tested in two rats and the values for the two rats were averaged.

[2] = Rattus norvegicus, intraduodenal, 30 mg/kg intraduodenally
[3] = Rattus norvegicus, intraduodenal, 100 mg/kg intraduodenally

## CCCCc1nc(CC(=O)O)nn1Cc1ccc(-c2ccccc2-c2nnn[nH]2)cc1 [Example 7, 5-[4′-[(5-butyl-3-carboxymethyl-1H-1,2,4-triazol-1-yl)methyl][1,1′-biphenyl]-2-yl]-1H-tetrazole]
[1]
  IC50: 0.084 µM
Rabbit aortic rings
  Kb: 0.00977 µM
AII pressor response; 30 mg/kg intraduodenally
  Assay C Duration: 130 min
AII pressor response; [2]
  inhibition at 30 mg/kg: 90%

## CCCCc1nc(C(OC)OC)n(Cc2ccc(-c3ccccc3-c3nnn[nH]3)cc2)n1 (single isomer, unassigned) [Example 23, 5-[4′-[[3-butyl-5-(dimethoxymethyl)-1H-1,2,4-triazol-1-yl]methyl][1,1′-biphenyl]-2-yl]-1H-tetrazole]
[1]
  IC50: 0.43 µM
other
  melting point: 152.5 to 153.5 °C

## CCCCc1nc(-c2ccccc2)nn1Cc1ccc(-c2ccccc2-c2nnn[nH]2)cc1 (single isomer, unassigned) [Example 21, 5-[4′-[(3-phenyl-5-butyl-1H-1,2,4-triazol-1-yl)methyl](1,1′-biphenyl)-2-yl]-1H-tetrazole]
[1]
  IC50: 0.087 µM
other
  melting point: 113 °C (dec.)

## CCCCc1nc(CCc2ccccc2)nn1Cc1ccc(-c2ccccc2-c2nnn[nH]2)cc1 (single isomer, unassigned) [Example 26]
[1]
  IC50: 0.0032 µM
Rabbit aortic rings
  Assay B pA2: 9.66
other
  melting point: 156 to 157.2 °C

## O=C(O)c1ccccc1-c1ccc(Cn2nc(C(F)(F)C(F)(F)C(F)(F)F)nc2C(F)(F)C(F)(F)C(F)(F)F)cc1 [Example 20, 4′-[(3,5-di-perfluoropropyl-1H-1,2,4-triazol-1-yl)methyl][1,1′-biphenyl]-2-carboxylic acid]
Rabbit aortic rings
  Kb: 1.29 µM
AII pressor response; 100 mg/kg intraduodenally
  Assay C Duration: 45 min
AII pressor response; [3]
  inhibition at 100 mg/kg: 10%

## CCCCc1nc(CCCN)nn1Cc1ccc(-c2ccccc2-c2nnn[nH]2)cc1 [Example 5, 5-[4′-[[3-(3-aminopropyl)-5-butyl-1H-1,2,4-triazol-1-yl]methyl][1,1′-biphenyl]-2-yl]-1H-tetrazole]
[1]
  IC50: 0.2 µM
AII pressor response; 30 mg/kg intraduodenally
  Assay C Duration: 20 to 30 min
AII pressor response; [2]
  inhibition at 30 mg/kg: 38%

## CCCCc1nc(C2CCCCC2)nn1Cc1ccc(-c2ccccc2-c2nnn[nH]2)cc1 [Example 66, 5-[4′-[(5-butyl-3-cyclohexyl-1H-1,2,4-triazol-1-yl)methyl][1,1′-biphenyl]-2-yl]-1H-tetrazole]
other
  melting point: 125 to 127 °C

## CCCCc1nc(C2CCCCC2)n(Cc2ccc(-c3ccccc3-c3nnn[nH]3)cc2)n1 [Example 65, 5-[4′-[(3-butyl-5-cyclohexyl-1H-1,2,4-triazol-1-yl)methyl][1,1′-biphenyl]-2-yl]-1H-tetrazole]
other
  melting point: 157.5 to 159.5 °C

## CCCCc1nc(C(F)(F)CCC)nn1Cc1ccc(-c2ccccc2C(=O)O)cc1 [Example 10]
AII pressor response; 3 mg/kg intraduodenally, time from peak percent inhibition to 50% of peak
  Assay C Duration: 100 min
AII pressor response; 30 mg/kg intraduodenally
  Assay C Duration: 240 min
AII pressor response; Rattus norvegicus, intraduodenal
  inhibition at 3 mg/kg: 86%
AII pressor response; [2]
  inhibition at 30 mg/kg: 100%

## CCCCc1nc(-c2ccccc2)n(Cc2ccc(-c3ccccc3-c3nnn[nH]3)cc2)n1 (single isomer, unassigned) [Example 22, 5-[4′-[(3-butyl-5-phenyl-1H-1,2,4-triazol-1-yl)methyl](1,1′-biphenyl)-2-yl]-1H-tetrazole]
[1]
  IC50: 0.46 µM
Rabbit aortic rings
  Assay B pA2: 6.46
other
  melting point: 205 °C (dec.)

## CCCCc1nc(CN)nn1Cc1ccc(-c2ccccc2-c2nnn[nH]2)cc1 [Example 3, 5-[4′-[(3-aminomethyl-5-butyl-1H-1,2,4-triazol-1-yl)methyl][1,1′-biphenyl]-2-yl]-1H-tetrazole]
[1]
  IC50: 0.0054 µM
Rabbit aortic rings
  Kb: 0.002 µM
AII pressor response; 10 mg/kg intragastrically
  Assay C Duration: >180 min
AII pressor response; 30 mg/kg intragastrically
  Assay C Duration: 200^+ min.
AII pressor response; Rattus norvegicus, po, 10 mg/kg intragastrically
  inhibition at 10 mg/kg: 50%
AII pressor response; Rattus norvegicus, po, 30 mg/kg intragastrically
  inhibition at 30 mg/kg: 100%

## CCCCCCCCc1nc(CCCC)nn1Cc1ccc(-c2ccccc2-c2nnn[nH]2)cc1 (single isomer, unassigned) [Example 28, 5-[4′-[(3-butyl-5-octyl-1H-1,2,4-triazol-1-yl)methyl][1,1′-biphenyl]-2-yl]-1H-tetrazole]
[1]
  IC50: 0.57 µM
other
  melting point: 136.5 to 138 °C

## CCCCc1nc(CCC(=O)O)nn1Cc1ccc(-c2ccccc2-c2nnn[nH]2)cc1 [Example 9, 5-[4′-[[5-butyl-3-(2-carboxyethyl)-1H-1,2,4-triazol-1-yl]methyl][1,1′-biphenyl]-2-yl]-1H-tetrazole]
[1]
  IC50: 0.7 µM
AII pressor response; 30 mg/kg intraduodenally
  Assay C Duration: 75 min
AII pressor response; 100 mg/kg intraduodenally
  Assay C Duration: 130 min
AII pressor response; [2]
  inhibition at 30 mg/kg: 80%
AII pressor response; [3]
  inhibition at 100 mg/kg: 100%

## CCCCc1nc(C(=O)CCC)nn1Cc1ccc(-c2ccccc2-c2nnn[nH]2)cc1 [Example 30]
other
  melting point: 150.5 to 152.5 °C

## CCCCc1nc(C)nn1Cc1ccc(-c2ccccc2-c2nnn[nH]2)cc1 (single isomer, unassigned) [Example 32, 5-[4′-[(5-butyl-3-methyl-1H-1,2,4-triazol-1-yl)methyl][1,1′-biphenyl]-2-yl]-1H-tetrazole]
[1]
  IC50: 0.016 µM
other
  melting point: 170 to 170.5 °C

## CCCCc1nc(Cl)nn1Cc1ccc(-c2ccccc2C(=O)O)cc1 (single isomer, unassigned) [Example 6, 4′-[(5-butyl-3-chloro-1H-1,2,4-triazol-1-yl)methyl][1,1′-biphenyl]-2-carboxylic acid]
Rabbit aortic rings
  Assay B pA2: 6.82
AII pressor response; 100 mg/kg intraduodenally
  Assay C Duration: 120 min
